Test results published in PMC11109052, “Metabolism characterization and toxicity of N-hydap, a marine candidate drug for lung cancer therapy by LC–MS method” (Natural Products and Bioprospecting, 2024).

What was measured:
[1] = Metabolic stability in HLMs, CYP reaction; assay type: in vitro ADME, human; settings: human, human liver microsomes (CYP reaction), pH 7.4, HLMs, CYP reaction
Description: (§1) Various microsomes including HLMs, HKMs, HIMs, RLMs, RKMs, MLMs and MKMs were involved in CYP and UGT reactions of N-hydap. A typical CYP incubation mixture included 0.5 mg/mL microsomes protein, 3.3 mM glucose-6-phosphate, 3.3 mM MgCl2, 0.4 U/mL glucose-6-phosphate dehydrogenase, and N-hydap (1, 2.5, or 10 μM) in the 50 mM potassium phosphate buffer (KPI, pH 7.4). The incubation mixture was preincubated at 37 °C for 5 min, and the reaction was started by adding NADP to form a NADPH-regenerating system. Simultaneously, the classic UGT reaction system consisted of 50 mM KPI, 5 mM MgCl2, 0.5 mg/mL microsomes, 0.125 mg/mL alamethicin, and 5.25 mg/mL saccharolactone. The reaction was initiated after supplying UDPGA. The CYP and UGT mixtures were incubated at 37 °C in a shaking water bath (80 rpm) for 1.5 h to enhance metabolite formation. To terminate the reaction, an ice-cold solution of Tes (50 ng/mL, dissolved in methanol and used as an internal standard) was added to half of the mixture volume. The mixture was vortexed for 30 s and then centrifuged at 13,000 rpm for 15 min to eliminate any precipitated protein. The resulting supernatant was transferred to autosampler vials, and 5 μL was injected into the LC–MS system. All reactions were conducted in triplicate.
(§2) The identical concentration of HLMs was utilized for both the CYP reaction and UGT reaction. At predetermined time intervals of 0, 15, 30, and 60 min, 100 µL samples were taken from the reaction volumes. To halt the reaction, 50 µL of 50 ng/mL Tes was added. Samples were analyzed using LC–MS to compare the remaining level of N-hydap between the CYP reaction and UGT reaction. T1/2 and CLint (in vivo) (mL/min/kg) were calculated as reported previously:
(§3) T1/2=0.693/k, where k represents the slope of the line derived from plotting the natural logarithm of the percentage (Ln %) of N-hydap remaining in the reaction mixture against the incubation time (minutes).
(§4) CLintinvivo=0.693/invitroT1/2×mLincubation/mgmicrosomes×45mgmicrosomes/gliver×20gliver/kgbodyweight.

HLMs (CYP reaction) = test: Metabolic stability in HLMs, CYP reaction; assay type: in vitro ADME, human; settings: for remaining percentage of N-hydap: HLMs, CYP reaction
Description: as §1, §2, §3, §4

Cyp2c39 = test: Real-time PCR mRNA level after 7 days gavage: Cyp2c39 (human homolog CYP2C19); assay type: in vivo, mice; design: key to CYP2C19 mNA expression: ↑: up-regulation; ↓: down-regulation; –: no change
Description: (§5) Mice were randomly divided into four groups, with eight animals in each group. The mice received oral pretreatment with N-hydap for 7 days at doses of 2, 5, and 10 mg/kg/day, which were considered as the low dose, medium dose, and high dose, respectively. Correspondingly, the control group received PBS. On the 8th day, the liver and kidneys were removed, and organs from eight mice per group were combined to prepare MLMs and MKMs using the detailed procedures above. Subsequently, we determined the activity of CYP and UGT enzymes by specific substrate metabolized with MLMs (0.5 mg/mL) and MKMs (0.2 mg/mL) in vitro. Specifically, the following selective substrates were used for the respective enzymes: PH (1 μM) for CYP1A2, DIC (1 μM) for CYP2C9, MP (90 μM) for CYP2C19, DM (1 μM) for CYP2D6, CZX (10 μM) for CYP2E1, Tes (1 μM) for CYP3A4, SN38 (1 μM) for UGT1A1, CACD (100 μM) for UGT1A3, Sero (20 μM) for UGT1A6, and Prop (1 μM) for UGT1A9. All substrates were dissolved in methanol or DMSO. The incubation procedure was carried out as mentioned above, and the reaction was terminated with VER (20 ng/mL) in ESI+ mode and CLP (200 ng/mL) in ESI− mode. In the ex vivo experiments, the activity of enzymes was measured by quantifying the production of various metabolites (nM/mg protein/min). The metabolites and their corresponding enzymes are as follows: APAP from PH, 4-OH-DIC from DIC, 4-OH-MP from MP, DXO from DM, 6-OH-CZX from CZX, 6-OH-Tes from Tes, SN38-G from SN38, CACD-G from CACD, Sero-G from Sero, Prop-G from Prop. The measurements were performed using multiple reaction monitoring (MRM) transitions, which are specific mass spectrometry transitions used for quantification. […]
(§6) Total RNA from liver and kidney samples taken after 7 days of N-hydap gavage was extracted using the Animal Total RNA Isolation Kit (Foregene, Chengdu, Sichuan, China) following the manufacturer’s instructions. The concentrations of total RNA were determined by a nucleic acid concentration tester at 260/280 nm. […]

Cyp2d22 = test: Real-time PCR mRNA level after 7 days gavage: Cyp2d22 (human homolog CYP2D6); assay type: in vivo, mice; design: key to CYP2D6 mNA expression: ↑: up-regulation; ↓: down-regulation; –: no change
Description: as §5, §6

UGT1A6 = test: DME activity ex vivo in MLMs and MKMs: UGT1A6 (Sero-G from Sero); design: species or system mice; key to UGT1A6 Enzymatic activity: ↑: up-regulation; ↓: down-regulation; –: no change
Description: Mice were randomly divided into four groups, with eight animals in each group. The mice received oral pretreatment with N-hydap for 7 days at doses of 2, 5, and 10 mg/kg/day, which were considered as the low dose, medium dose, and high dose, respectively. Correspondingly, the control group received PBS. On the 8th day, the liver and kidneys were removed, and organs from eight mice per group were combined to prepare MLMs and MKMs using the detailed procedures above. Subsequently, we determined the activity of CYP and UGT enzymes by specific substrate metabolized with MLMs (0.5 mg/mL) and MKMs (0.2 mg/mL) in vitro. Specifically, the following selective substrates were used for the respective enzymes: PH (1 μM) for CYP1A2, DIC (1 μM) for CYP2C9, MP (90 μM) for CYP2C19, DM (1 μM) for CYP2D6, CZX (10 μM) for CYP2E1, Tes (1 μM) for CYP3A4, SN38 (1 μM) for UGT1A1, CACD (100 μM) for UGT1A3, Sero (20 μM) for UGT1A6, and Prop (1 μM) for UGT1A9. All substrates were dissolved in methanol or DMSO. The incubation procedure was carried out as mentioned above, and the reaction was terminated with VER (20 ng/mL) in ESI+ mode and CLP (200 ng/mL) in ESI− mode. In the ex vivo experiments, the activity of enzymes was measured by quantifying the production of various metabolites (nM/mg protein/min). The metabolites and their corresponding enzymes are as follows: APAP from PH, 4-OH-DIC from DIC, 4-OH-MP from MP, DXO from DM, 6-OH-CZX from CZX, 6-OH-Tes from Tes, SN38-G from SN38, CACD-G from CACD, Sero-G from Sero, Prop-G from Prop. The measurements were performed using multiple reaction monitoring (MRM) transitions, which are specific mass spectrometry transitions used for quantification. The optimized parameters for each metabolite, such as declustering potential and collision energy, were described in Supplementary Table 1. All experiments were conducted in triplicate, to ensure accuracy and reproducibility.

In the case of `CC1CCC2C(C=CC(C)C2C(=O)c2c(O)c(C3(O)CCC(O)C4OC43)cn(O)c2=O)C1` (centres unmarked) [N-hydap, N-Hydroxyapiosporamide], the half-life [1] is reported as 2.98 h, the CLint scaled ([1]; extrapolated from in vitro T1/2, read-out: CLint (in vivo)) is reported as 34.9 mL/min/kg and the “remaining percentage of N-hydap” value (HLMs (CYP reaction); 15 min) is reported as 64.43%. For the same compound, the “remaining percentage of N-hydap” value (HLMs (CYP reaction); 30 min) was 58.02%, the “eliminated by CYPs” value (HLMs (CYP reaction); various microsomes, after 1 h) was “about 50%” and the “CYP2C19 mNA expression” value (Cyp2c39; Kidney) was “↓”. For the same compound, the “CYP2C19 mNA expression” value (Cyp2c39; Liver) was “↓”, the “mRNA levels of Cyp2c39” value (Cyp2c39; mice, 2, 5, 10 mg/kg p.o. 7 days, liver and kidneys) was “slight reduction” and the “CYP2D6 mNA expression” value (Cyp2d22; Kidney) was “–”. For the same compound, the “CYP2D6 mNA expression” value (Cyp2d22; Liver) was “–”, the “mRNA levels of Cyp2d22” value (Cyp2d22; mice, 2, 5, 10 mg/kg p.o. 7 days) was “No significant changes” and the “UGT1A6 Enzymatic activity” value (UGT1A6; Kidney) was “–”. For the same compound, the “UGT1A6 Enzymatic activity” value (UGT1A6; Liver) was “↓” and the “reduction of formation rate of Sero-G vs control” value (UGT1A6; liver microsomes of mice pretreated 7 days p.o.) was 72%.
